Data: paper PMC6009888, “Design, synthesis, and pharmacological evaluation of 2-amino-5-nitrothiazole derived semicarbazones as dual inhibitors of monoamine oxidase and cholinesterase: effect of the size of aryl binding site” (Journal of Enzyme Inhibition and Medicinal Chemistry, 2017)
“And” between values parts separate entries of the source, which are not always exact repeats. Identical values can stand only once.

Experiments:
MAO-A = target: T1, MAO-A (Rattus norvegicus, UniProt P21396); assay: In vitro MAO-A inhibition assay (rat brain mitochondria, serotonin substrate); format: biochemical; conditions: rat brain mitochondria, serotonin substrate, mean ± SEM, triplicate; read-out: MAO-A In vitro IC50 (µM) ± SEM
T1 construct: employing crude rat brain mitochondrial suspension; from tissue; host or cells: brain mitochondria of adult Wistar rats
T1 sequence (P21396 1-526): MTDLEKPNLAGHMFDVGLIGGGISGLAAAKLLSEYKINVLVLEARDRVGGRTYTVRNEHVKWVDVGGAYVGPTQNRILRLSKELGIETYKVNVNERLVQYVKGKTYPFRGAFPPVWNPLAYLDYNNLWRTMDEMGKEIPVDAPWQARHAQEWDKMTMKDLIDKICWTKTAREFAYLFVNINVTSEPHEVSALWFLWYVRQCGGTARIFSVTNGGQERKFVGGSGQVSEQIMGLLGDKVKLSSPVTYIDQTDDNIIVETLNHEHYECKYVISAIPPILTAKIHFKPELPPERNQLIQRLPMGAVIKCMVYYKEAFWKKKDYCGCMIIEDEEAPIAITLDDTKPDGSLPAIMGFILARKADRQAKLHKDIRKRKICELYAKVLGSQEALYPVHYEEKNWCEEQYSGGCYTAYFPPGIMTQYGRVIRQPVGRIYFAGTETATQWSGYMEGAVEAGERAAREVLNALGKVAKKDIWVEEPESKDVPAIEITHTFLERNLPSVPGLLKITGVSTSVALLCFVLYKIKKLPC
Experimental: (§1) Rat brain mitochondria were used as a source of MAO isoforms. All operations were carried out at 4 °C[50]. Male and female adult Wistar rats weighing 200–220 g were decapitated. All brains were rapidly removed and homogenised with a Potter–Elvehjem homogeniser in cold 0.32 M sucrose and 50 mM Tris-HCl, pH 8.2 (10:1, v/w). The homogenate was centrifuged twice at 1000 g for 5 min at 4 °C. The resulting supernatant was centrifuged at 20,000 g for 20 min. The mitochondrial pellet obtained was suspended in 100 mM sodium phosphate buffer, pH 7.4 (4:1, v/w), fractionated in plastic vials to 500 µl samples and stored at −80 °C. Before use, mitochondria were diluted with 100 mM sodium phosphate buffer to give a working solution of 0.80 mg of protein per millilitre.
(§2) The experiments were carried out under all the suitable laboratory conditions. […] An aliquot was made to contain mixture of 55 µl mitochondrial suspension (0.80 mg of protein/ml), 90 µl 50 mM Tris-HCl buffer, pH 8.2 and 30 µl solubilising solution (control or inhibitor solution at five different concentrations). The reaction was initiated by adding 25 µl of serotonin (4 mM, substrate for MAO-A) and 25 µl benzylamine (0.1 M, substrate for MAO-B) for the determination of MAO-A and MAO-B activity, respectively. The mixture was incubated at 37 °C for 30 min and the reaction was stopped by the addition of 50 µl of 1 N HCl. The absorbance associated with the production of 5-hydroxyindolacetic acid was measured at 280 nm for the estimation of MAO-A while for MAO-B estimation, the absorbance was measured at 250 nm due to the formation of benzaldehyde. All the assays were performed in triplicate. Control experiments were carried out without inhibitor and blanks were run without mitochondrial suspension.
(§3) Data are expressed as mean ± standard error mean (SEM) of experiments performed in triplicate.
(§4) 0, 15, 30 and 60 min at 37 °C in Tris-HCl buffer (50 mM, pH 8.2). […] The reactions were further incubated at 37 °C for a further 15 min and the residual enzyme activities were measured and the bar graphs were constructed. All measurements were carried out in triplicate and are expressed as mean ± SEM.

mice = assay: Neurotoxicity screening (rotarod test); format: in vivo; conditions: 30 mg/kg i.p.
Experimental: The neurotoxicity screening was undertaken according to the method followed by the National Institute of Health, using their reported procedures[55]^,[56]. Male albino mice (CF-1 strain or Swiss, 18–25 g) were used as experimental animals. The animals were housed in metabolic cages, and allowed free access to food and water. The test compounds were suspended in 0.5% methylcellulose/water mixture or in polyethylene glycol (PEG 200).
Minimal motor impairment was measured in mice by the rotarod test. The mice were trained to stay on an accelerating rotarod that rotates at six revolutions per minute. The rod diameter was 3.2 cm. Trained animals were given i.p. injection of the selected inhibitors at a dose of 30 mg/kg. Neurotoxicity was indicated by the inability of the animal to maintain equilibrium on the rod for at least 1 min in each of the three trials.

physchem = conditions: octanol/water
MAO-B = target: T2, MAO-B (Rattus norvegicus, UniProt P19643); assay: biochemical; conditions: for SI (selectivity index for MAO-B): ratio of experimental IC50(MAO-A)/IC50(MAO-B)
T2 construct: employing crude rat brain mitochondrial suspension; from tissue; host or cells: brain mitochondria of adult Wistar rats
T2 sequence (P19643 1-520): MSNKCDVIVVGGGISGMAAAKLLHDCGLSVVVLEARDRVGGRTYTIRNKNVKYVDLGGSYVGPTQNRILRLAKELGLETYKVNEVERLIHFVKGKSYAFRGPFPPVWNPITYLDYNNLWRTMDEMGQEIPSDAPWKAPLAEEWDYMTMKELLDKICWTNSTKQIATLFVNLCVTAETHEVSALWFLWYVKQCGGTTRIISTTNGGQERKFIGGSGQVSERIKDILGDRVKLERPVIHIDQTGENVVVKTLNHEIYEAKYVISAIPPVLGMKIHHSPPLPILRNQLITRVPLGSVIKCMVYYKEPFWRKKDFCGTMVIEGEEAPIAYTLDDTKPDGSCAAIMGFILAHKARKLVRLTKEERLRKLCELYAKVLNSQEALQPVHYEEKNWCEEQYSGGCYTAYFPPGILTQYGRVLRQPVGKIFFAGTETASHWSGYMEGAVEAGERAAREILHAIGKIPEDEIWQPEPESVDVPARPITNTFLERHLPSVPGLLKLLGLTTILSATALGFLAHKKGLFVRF
Experimental: as §1, §2, §3, §4

[1] = In vitro DPPH radical scavenging assay; conditions: test sample 100 µg/ml, 100 µM methanolic DPPH, 30 min, 517 nm
Experimental: Antioxidant activity of the synthesised compounds (10 mg/ml) was evaluated using the radical scavenging capability against the stable free radical, 2,2′-diphenyl-1-picryl hydrazyl (DPPH·). The DPPH· scavenging capability was determined using UV based spectrophotometric assay. About 200 µl of the test sample solution (100 µg/ml) was added to 4 ml of 100 µM methanolic DPPH. […] Ascorbic acid (100 µg/ml) was used as reference. The percentage inhibition of DPPH activity was estimated using the formula: Percent (%) inhibition of DPPH activity = Acontrol-Asample/Acontrol×100 where Acontrol is the absorbance of DPPH· in methanol without an antioxidant and Asample is the absorbance of DPPH· in the presence of an antioxidant.

rat brain AChE = target: T3, rat brain AChE (Rattus norvegicus, UniProt P37136); assay: biochemical; format: biochemical; conditions: for AChE: fold less active relative to compound 19: diaryl analogues; for IC50: rat brain AChE, ACTI substrate, mean ± SEM, triplicate, read-out: AChE In vitro IC50 (µM) ± SEM
T3 construct: the resulting clear supernatants obtained were used as enzyme sources; from tissue; host or cells: rat brain cortex homogenate, 10,000 g supernatant
Experimental: Rat brain was used as a source of AChE enzyme. Rats were separately decapitated, the brain cortices quickly removed, weighed and homogenised in cold 10 mM Tris-HCl buffer, pH 7.2, containing 160 mM sucrose. The homogenates were centrifuged at 10,000 g for 10 min at 4 °C, and the resulting clear supernatants obtained were used as enzyme sources that were divided into aliquots and stored at −20 °C.
(§5) About 30 µl of enzyme sample (AChE) was added to 60 µl of 20 mM sodium phosphate buffer (pH 7.4) and were incubated in the presence of 30 µl of 10 mM DTNB solution with different concentrations of the test compounds. The enzyme reaction was initiated by the addition of 30 µl of 0.8 mM ACTI. The mixtures were incubated for 15 min at 25 °C. […] Control experiments were carried out without inhibitor, and blanks were run without AChE enzyme. All the assays were performed in triplicate. IC50 values were determined using the GraphPad Prism 5.0 (San Diego, CA) and the results were expressed as mean ± SEM.
as §4, with “25” for “37”, “sodium phosphate” for “Tris-HCl”, “(20” for “(50”, “7.4) and DTNB solution (10 mM).” for “8.2).”, “reaction was” for “reactions were”

equine serum BuChE = target: T4, equine serum BuChE (Equus caballus, UniProt P81908); assay: In vitro BuChE inhibition assay (Ellman's method, equine serum BuChE); format: biochemical; conditions: for IC50: equine serum BuChE, BuTI substrate, mean ± SEM, read-out: BuChE In vitro IC50 (µM) ± SEM
T4 construct: equine serum BuChE was used as enzyme; purchased Sigma-Aldrich; host or cells: equine serum
Experimental: as §5
The BuChE activity was assayed as per the procedure followed for AChE activity except that equine serum BuChE was used as enzyme and butyrylthiocholine iodide (BuTI) was used as substrate.
as §4, with “25” for “37”, “sodium phosphate” for “Tris-HCl”, “(20” for “(50”, “7.4) and DTNB solution (10 mM).” for “8.2).”, “reaction was” for “reactions were”

T4 sequence (P81908 whole entry): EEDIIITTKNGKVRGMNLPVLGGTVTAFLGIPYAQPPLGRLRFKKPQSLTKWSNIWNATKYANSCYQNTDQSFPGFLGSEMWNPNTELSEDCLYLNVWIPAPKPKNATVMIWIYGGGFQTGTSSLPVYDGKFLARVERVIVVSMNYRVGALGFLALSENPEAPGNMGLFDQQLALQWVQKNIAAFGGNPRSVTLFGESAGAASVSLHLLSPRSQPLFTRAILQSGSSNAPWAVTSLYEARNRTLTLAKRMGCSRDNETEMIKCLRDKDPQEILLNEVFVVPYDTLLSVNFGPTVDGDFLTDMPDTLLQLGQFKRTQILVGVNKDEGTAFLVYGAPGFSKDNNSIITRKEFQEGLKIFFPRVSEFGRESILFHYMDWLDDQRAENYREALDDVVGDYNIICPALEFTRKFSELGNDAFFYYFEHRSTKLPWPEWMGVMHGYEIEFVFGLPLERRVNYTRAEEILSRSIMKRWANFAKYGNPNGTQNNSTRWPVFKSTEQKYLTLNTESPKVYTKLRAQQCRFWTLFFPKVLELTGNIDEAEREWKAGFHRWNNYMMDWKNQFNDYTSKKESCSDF
T3 sequence (P37136 32-614): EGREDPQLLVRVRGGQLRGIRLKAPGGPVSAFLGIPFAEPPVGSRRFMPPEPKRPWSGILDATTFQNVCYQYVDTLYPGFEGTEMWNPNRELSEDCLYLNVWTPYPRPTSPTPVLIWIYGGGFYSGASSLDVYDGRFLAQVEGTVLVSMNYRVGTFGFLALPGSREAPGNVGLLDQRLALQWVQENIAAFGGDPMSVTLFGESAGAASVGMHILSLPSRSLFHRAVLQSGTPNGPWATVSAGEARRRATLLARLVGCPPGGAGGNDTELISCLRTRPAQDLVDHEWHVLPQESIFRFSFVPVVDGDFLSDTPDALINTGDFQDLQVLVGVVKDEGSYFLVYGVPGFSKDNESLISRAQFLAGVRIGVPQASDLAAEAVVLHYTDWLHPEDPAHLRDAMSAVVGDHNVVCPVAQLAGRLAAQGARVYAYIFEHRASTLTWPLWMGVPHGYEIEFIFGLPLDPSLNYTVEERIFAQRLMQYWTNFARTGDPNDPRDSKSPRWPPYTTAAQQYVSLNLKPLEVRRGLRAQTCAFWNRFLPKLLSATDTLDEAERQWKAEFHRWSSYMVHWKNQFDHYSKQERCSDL

Row | SMILES | IC50 (MAO-A) | Neurotoxicity (animals that exhibit toxicity / animals tested) (mice; 0.5 h) | Neurotoxicity (animals that exhibit toxicity / animals tested) (mice; 1 h) | Neurotoxicity (animals that exhibit toxicity / animals tested) (mice; 2 h) | Neurotoxicity (animals that exhibit toxicity / animals tested) (mice; 4 h) | logP (physchem) | IC50 (MAO-B) [µM] | MAO-B: fold reduction in the activity (hydroxyl vs dichloro diaryl analogue 19) (MAO-B; diaryl analogues) [fold] | MAO-B: fold less active relative to compound 7 (MAO-B; ratio of IC50 values) [fold] | SI (selectivity index for MAO-B) (MAO-B) | % inhibition of DPPH activity [1] [%] | AChE: fold less active relative to compound 19 (rat brain AChE) [fold] | IC50 (rat brain AChE) [µM] | AChE: fold more active relative to compound 7 (rat brain AChE; ratio of IC50 values) [fold] | MAO-B: fold less active than compound 13 (MAO-B; isomeric dichloro derivatives) [fold] | AChE: fold less active than compound 14 (rat brain AChE; isomeric dichloro derivatives) [fold] | BuChE: fold less active relative to compound 17 (equine serum BuChE; diaryl analogues) [fold] | IC50 (equine serum BuChE) [µM] | Mode of BuChE inhibition (equine serum BuChE; Lineweaver–Burk plots, BuTI) | Reversibility of BuChE inhibition (equine serum BuChE; time-dependent inhibition, pre-incubation 0, 15, 30, 60 min)
1 | O=C(NN=C(c1ccccc1)c1ccc(O)cc1)Nc1ncc([N+](=O)[O-])s1 [Compound 18, 1-((4-Hydroxyphenyl)(phenyl)methylene)-4-(5-nitrothiazol-2-yl)semicarbazide] | > 100 µM and 34300 µM | 0/4 | 0/4 | 0/4 | 0/4 | 2.9 | 158 ± 3.71 | ~107 | ~10.7 | 217.26 | 10.77 | ~1.83 | 2.66 ± 0.084 | ~4.97 |  |  |  |  |  | 
2 | O=C(NN=Cc1ccc(Cl)cc1Cl)Nc1ncc([N+](=O)[O-])s1 [Compound 13, 1-(2,4-Dichlorobenzylidene)-4-(5-nitrothiazol-2-yl)semicarbazide] | 10470 ± 13.9 µM | 0/4 | 0/4 | 0/4 | 0/4 | 2.5 | 3.49 ± 0.098 |  |  | 3001.15 | 39.39 |  | 141 ± 3.11 |  |  |  |  |  |  | 
3 | O=C(NN=Cc1cccc(Cl)c1Cl)Nc1ncc([N+](=O)[O-])s1 [Compound 12, 1-(2,3-Dichlorobenzylidene)-4-(5-nitrothiazol-2-yl)semicarbazide] | 3369 ± 6.43 µM | 0/4 | 0/4 | 0/4 | 0/4 | 2.6 | 8.51 ± 0.132 |  |  | 395.79 | 42.56 |  | 101 ± 1.58 |  | ~2.4 | ~9.4 |  |  |  | 
4 | O=C(NN=C(c1ccccc1)c1ccccc1)Nc1ncc([N+](=O)[O-])s1 [Compound 16, 1-(Diphenylmethylene)-4-(5-nitrothiazol-2-yl)semicarbazide] | < 100 µM and 89.3 µM | 0/4 | 0/4 | 0/4 | 0/4 | 3.4 | 28.3 ± 0.45 |  |  | 3.15 |  | ~3.35 | 4.86 ± 0.81 |  |  |  | ~73 | 1.76 ± 0.035 |  | 
5 | O=C(NN=C(c1ccccc1)c1ccc(Cl)cc1)Nc1ncc([N+](=O)[O-])s1 [Compound 17, 1-((4-Chlorophenyl)(phenyl)methylene)-4-(5-nitrothiazol-2-yl)semicarbazide] | 4872 ± 5.81 µM |  |  |  |  | 3.6 | 28.52 ± 0.079 |  |  | 170.83 |  |  | 11.5 ± 0.35 |  |  |  |  | 0.024 ± 0.002 | mixed-type | reversible
6 | O=C(NN=C1C(=O)Nc2ccccc21)Nc1ncc([N+](=O)[O-])s1 [Compound 20, 4-(5-Nitrothiazol-2-yl)-1-(2-oxoindolin-3-ylidene)semicarbazide] | 2250 ± 12.8 µM | 0/4 | 0/4 | 0/4 | 0/4 | 1.1 | 4.51 ± 0.086 |  |  | 499.22 | 47.16 |  | 54.8 ± 0.92 |  |  |  |  |  |  | 
